The values that follow come from PMC10691697, “A small molecule exerts selective antiviral activity by targeting the human cytomegalovirus nuclear egress complex” (PLOS Pathogens, 2023).

Where “and” joins values, the source holds several entries; their conditions need not be identical. Equal values may be shown once.

In one experiment the target is T1, HCMV UL50-UL53 (Human cytomegalovirus, UniProt P16794).
T1 construct: GST (N, cleaved yes); 13-residue glycine-serine linker […]; made in house; host or cells: E. coli BL21 (DE3) RIPL
Description: biochemical. It is filed as binding. As to conditions: for scoring as a hit in the HTRF screen: hit = at least 50 percent inhibition of HTRF signal, ibrutinib up to 50 μM. In general terms: In TR-FRET formats the signal depends on donor and acceptor labels being close together.

Experiment [1] deals with T2, HSV-1 P30-UL42 (Human herpesvirus 1, UniProt P10226).
T2 construct: containing UL42 residues 1–340; GST (N); glycine-serine linker of the modified pGEX6p plasmid (presence inferred) (N); made in house; host or cells: E. coli (UL42: pLysS BL21)
In words: biochemical. It is filed as binding.

The target in experiment [2] is T3, HSV-1 P30-UL42 (Human herpesvirus 1, UniProt P10226).
T3 construct: containing UL42 residues 1–340; GST (N); glycine-serine linker of the modified pGEX6p plasmid (presence inferred) (N); made in house; host or cells: E. coli (UL42: pLysS BL21)
T3 sequence (P10226 whole entry, looked up): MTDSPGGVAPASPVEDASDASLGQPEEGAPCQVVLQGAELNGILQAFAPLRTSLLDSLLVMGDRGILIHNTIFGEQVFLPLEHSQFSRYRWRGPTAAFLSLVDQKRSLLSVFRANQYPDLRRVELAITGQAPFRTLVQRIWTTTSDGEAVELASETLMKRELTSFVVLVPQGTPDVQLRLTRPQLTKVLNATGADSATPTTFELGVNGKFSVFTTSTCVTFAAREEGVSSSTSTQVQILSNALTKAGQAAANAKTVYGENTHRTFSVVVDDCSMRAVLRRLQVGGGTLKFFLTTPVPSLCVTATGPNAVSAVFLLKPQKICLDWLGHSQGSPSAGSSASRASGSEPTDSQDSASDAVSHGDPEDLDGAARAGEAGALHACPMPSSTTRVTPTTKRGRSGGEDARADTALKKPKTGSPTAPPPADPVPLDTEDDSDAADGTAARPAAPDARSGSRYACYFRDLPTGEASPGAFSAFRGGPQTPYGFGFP
In words: biochemical. The experiment is classed as binding. The source holds these as a separate data set.

Experiment [3] concerns the target T4, His-SUMO-tagged HSV-1 UL42 (residues 1-340) (herpes simplex virus 1 (HSV-1), UniProt P10226 1-340).
T4 construct: also called His-SUMO-UL42; His-tagged HSV-1 UL42; source: E. coli pLysS BL21, purified as described for the HCMV NEC proteins
T4 sequence: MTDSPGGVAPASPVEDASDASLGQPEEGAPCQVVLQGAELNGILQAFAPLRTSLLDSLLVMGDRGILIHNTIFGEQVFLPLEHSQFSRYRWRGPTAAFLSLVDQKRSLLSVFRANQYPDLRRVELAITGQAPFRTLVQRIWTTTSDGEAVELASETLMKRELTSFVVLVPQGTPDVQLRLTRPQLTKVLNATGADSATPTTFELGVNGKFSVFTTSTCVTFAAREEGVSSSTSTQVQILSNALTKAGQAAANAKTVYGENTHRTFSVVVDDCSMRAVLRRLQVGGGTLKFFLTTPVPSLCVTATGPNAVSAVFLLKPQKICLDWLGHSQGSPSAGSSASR
Description: AlphaScreen or HTRF. The following applies: both partners purified. A general note: Bead proximity is the source of the signal in Alpha formats.

Experiment [4] has as its target T5, Myc-tagged HCMV UL53 (residues 50-292) (human cytomegalovirus (HCMV), UniProt P16794 50-292).
T5 construct: source: E. coli BL21 (DE3) RIPL, purified (glutathione-agarose, on-column PreScission digestion, size exclusion chromatography); not shown: GST, N-terminal, cleaved; Myc, N-terminal, kept
T5 sequence: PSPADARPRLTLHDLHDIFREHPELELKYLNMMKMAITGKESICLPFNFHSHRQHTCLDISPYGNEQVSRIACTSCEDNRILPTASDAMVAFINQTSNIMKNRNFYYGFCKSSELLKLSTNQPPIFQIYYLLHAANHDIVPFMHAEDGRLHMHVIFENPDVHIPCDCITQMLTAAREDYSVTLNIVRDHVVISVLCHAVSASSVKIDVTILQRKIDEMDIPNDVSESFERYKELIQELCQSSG
Description: AlphaScreen or HTRF. As to conditions: both partners purified.

Experiment [5] concerns the target T6, His-tagged HCMV UL50 (residues 1-169) (human cytomegalovirus (HCMV), UniProt P16791 1-169).
T6 construct: also called His-UL50; tagged UL50; source: E. coli BL21 (DE3) RIPL, purified (nickel Sepharose, size exclusion chromatography); not shown: His, N-terminal, kept
T6 sequence: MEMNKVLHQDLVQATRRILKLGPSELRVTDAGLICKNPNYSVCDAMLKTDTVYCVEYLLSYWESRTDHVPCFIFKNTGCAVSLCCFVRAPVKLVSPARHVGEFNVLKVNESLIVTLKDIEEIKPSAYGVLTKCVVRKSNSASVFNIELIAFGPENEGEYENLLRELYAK
In words: AlphaScreen or HTRF. As to conditions: both partners purified.

Setting [6] is: LINCS2 well 2, 10 μM in the assay.
Where [7] appears, read: LINCS2 well 4, 0.4 μM in the assay.
Where [8] appears, read: Selleck well, 50 μM in the assay.

Take `O=C([O-])c1ccccc1-c1c2cc(Br)c(=O)cc-2oc2[c]([Hg+])c([O-])c(Br)cc12.[Na+].[Na+].[OH-]` [merbromin, reference compound]: the “scoring as a hit in the HTRF screen” value at HCMV UL50-UL53 was “scored negative”.
As for `CCC(=O)Nc1cccc(Oc2ccnc3[nH]ccc23)c1` [aGK2], the “activity in the HTRF assay for NEC interactions” value on HCMV UL50-UL53 was “little, if any activity”. The remaining activity at 1.56 µM was found to be 95% at HCMV UL50-UL53 (WT UL50-UL53, 1.56 μM compound, replicates, read-out: normalized FRET signal relative to control without inhibitor) and 101% on HSV-1 P30-UL42 [1] (HSV1 P30-UL42, 1.56 μM compound, replicates, read-out: normalized FRET signal relative to control without inhibitor). For the same molecule, the remaining activity at 3.13 µM came out at 95% at HCMV UL50-UL53 (WT UL50-UL53, 3.13 μM compound, replicates, read-out: normalized FRET signal relative to control without inhibitor) and 102% at HSV-1 P30-UL42 [1] (HSV1 P30-UL42, 3.13 μM compound, replicates, read-out: normalized FRET signal relative to control without inhibitor). Besides, the remaining activity at 6.25 µM at HCMV UL50-UL53 (WT UL50-UL53, 6.25 μM compound, replicates, read-out: normalized FRET signal relative to control without inhibitor) amounted to 92%; on HSV-1 P30-UL42 [1] (HSV1 P30-UL42, 6.25 μM compound, replicates, read-out: normalized FRET signal relative to control without inhibitor), 99%. Besides, the remaining activity at 50 µM on HCMV UL50-UL53 (WT UL50-UL53, 50.00 μM compound, replicates, read-out: normalized FRET signal relative to control without inhibitor) stood at 93%; at HSV-1 P30-UL42 [1] (HSV1 P30-UL42, 50.00 μM compound, replicates, read-out: normalized FRET signal relative to control without inhibitor), 97%. Also, the remaining activity at 25 µM was found to be 94% on HCMV UL50-UL53 (WT UL50-UL53, […] compound, replicates, read-out: normalized FRET signal relative to control without inhibitor) and 99% at HSV-1 P30-UL42 [1] (HSV1 P30-UL42, […] compound, replicates, read-out: normalized FRET signal relative to control without inhibitor). Moreover, at HSV-1 P30-UL42 [1] (all concentrations tested (up to 50 μM)), the “inhibition in the HSV-1 P30-UL42 counterscreen assay” value is reported as “little, if any activity”.
Regarding `C=CC(=O)N1CCC[C@@H](n2nc(-c3ccc(Oc4ccccc4)cc3)c3c(N)ncnc32)C1` [ibrutinib, reference compound], the “HTRF Channel 2 (620 nm)” value is 5736 and 5840 at HCMV UL50-UL53 (LINCS2 well 1, 50 μM in the assay); 5859 and 6111 on HCMV UL50-UL53 (setting [6]); 6125 and 5780 on HCMV UL50-UL53 (LINCS2 well 3, 2 μM in the assay); 5791 and 5828 at HCMV UL50-UL53 (setting [7]); 8631 and 9073 on HCMV UL50-UL53 (setting [8]). Further, the “HTRF Channel 1 (665 nm)” value at HCMV UL50-UL53 (setting [6]) was 31679; at HCMV UL50-UL53 (setting [7]), 31815; on HCMV UL50-UL53 (setting [8]), 7468 and 7529. The “inhibition in HTRF screen” value on HCMV UL50-UL53 (LINCS wells, 50, 10, 2 and 0.4 μM) is reported as “Essentially no inhibition”. Further, the “scoring as a hit in the HTRF screen” value on HCMV UL50-UL53 was “not registering as a hit”.
Take “Untagged P30: untagged C-terminal 36 residues of HSV-1 UL30 (DDVAARLRAAGFGAVGAGATAEETRRMLHRAFDTLA) [reference compound]”: the HTRF ratio in the experiment with HSV-1 P30-UL42 [2] (P30-UL42 + untagged protein, A665nm/A620nm * 10000, single replicates) is 26529 and 26670 and 27659. Further, the “HTRF ratio, Mean” value in the experiment with HSV-1 P30-UL42 [2] (P30-UL42 + untagged protein, triplicate) stood at 26953. This molecule registered a S/B with HSV-1 P30-UL42 [2] (P30-UL42 with untagged protein) of 2.4.

B1: Myc-tagged HSV-1 Pol C-terminal peptide P30 (UL30 residues 1200-1235) (peptide)
chain: GGGGSGGGGSGGGDDVAARLRTAGFGAVGAGATAEETRRMLHRAFDTLA
notes: source: E. coli, expressed and purified as described for Myc-UL53; not shown: Myc, N-terminal, kept
Regarding B1, in experiment [3], the binding result was “binds”.

B2: His-tagged HCMV UL50 (residues 1-169) (domain or fragment)
chain: MEMNKVLHQDLVQATRRILKLGPSELRVTDAGLICKNPNYSVCDAMLKTDTVYCVEYLLSYWESRTDHVPCFIFKNTGCAVSLCCFVRAPVKLVSPARHVGEFNVLKVNESLIVTLKDIEEIKPSAYGVLTKCVVRKSNSASVFNIELIAFGPENEGEYENLLRELYAK
notes: also called His-UL50; source: E. coli BL21 (DE3) RIPL, purified (nickel Sepharose, size exclusion chromatography); not shown: His, N-terminal, kept
As a reminder, the Kd is the constant that tells how readily two partners part at equilibrium. As to B2, the Kd in experiment [4] is 220 nM and 380 nM.

B3: His-tagged HCMV UL50 (residues 1-169) C79S (domain or fragment)
chain: MEMNKVLHQDLVQATRRILKLGPSELRVTDAGLICKNPNYSVCDAMLKTDTVYCVEYLLSYWESRTDHVPCFIFKNTGSAVSLCCFVRAPVKLVSPARHVGEFNVLKVNESLIVTLKDIEEIKPSAYGVLTKCVVRKSNSASVFNIELIAFGPENEGEYENLLRELYAK
notes: source: E. coli BL21 (DE3) RIPL, purified (same methods as His-UL50); not shown: His, N-terminal, kept
Turning to B3, the Kd in experiment [4] was 230 nM and 450 nM.

B4: His-tagged HCMV UL50 (residues 1-169) C54S (domain or fragment)
chain: MEMNKVLHQDLVQATRRILKLGPSELRVTDAGLICKNPNYSVCDAMLKTDTVYSVEYLLSYWESRTDHVPCFIFKNTGCAVSLCCFVRAPVKLVSPARHVGEFNVLKVNESLIVTLKDIEEIKPSAYGVLTKCVVRKSNSASVFNIELIAFGPENEGEYENLLRELYAK
notes: as for B3
With B4, the Kd in experiment [4] is 140 nM and 340 nM.

B5: His-tagged HCMV UL50 (residues 1-169) C35N (domain or fragment)
chain: MEMNKVLHQDLVQATRRILKLGPSELRVTDAGLINKNPNYSVCDAMLKTDTVYCVEYLLSYWESRTDHVPCFIFKNTGCAVSLCCFVRAPVKLVSPARHVGEFNVLKVNESLIVTLKDIEEIKPSAYGVLTKCVVRKSNSASVFNIELIAFGPENEGEYENLLRELYAK
notes: as for B3
In the case of B5, the Kd in experiment [4] was 110 nM and 190 nM.

B6: Myc-tagged HCMV UL53 (residues 50-292) with glycine-serine linker (domain or fragment)
chain: GGGGSGGGGSGGGPSPADARPRLTLHDLHDIFREHPELELKYLNMMKMAITGKESICLPFNFHSHRQHTCLDISPYGNEQVSRIACTSCEDNRILPTASDAMVAFINQTSNIMKNRNFYYGFCKSSELLKLSTNQPPIFQIYYLLHAANHDIVPFMHAEDGRLHMHVIFENPDVHIPCDCITQMLTAAREDYSVTLNIVRDHVVISVLCHAVSASSVKIDVTILQRKIDEMDIPNDVSESFERYKELIQELCQSSG
notes: source: E. coli BL21 (DE3) RIPL, purified (glutathione-agarose, on-column PreScission digestion, size exclusion chromatography); not shown: GST, N-terminal, cleaved; Myc, N-terminal, kept
For B6, the “HTRF ratio, fold over the background of either tagged subunit alone” value in experiment [5] was ~3 fold.
